Legend:
[1] = tested on: HCT-116 human colon carcinoma cell line; test: Cell viability assay (SRB) in HCT-116; type: cell-based; conditions: 72 hours after treatment, read-out: HCT116 IC50
Experimental: (§1) Human colon carcinoma cell line HCT-116 was a kind gift from Igor Ronninson from University of South Caroli, Columbia, USA. Human breast cancer cell line, JIMT-1 was kindly provided by Ali Osmay Güre from Bilkent University, Ankara, Turkey. Cells were cultured in Dulbecco's modified Eagle's medium (Lonza, NJ, USA), supplemented with 10% fetal bovine serum (FBS, Lonza), 1% non-essential amino acid (NEAA), 2 mM L-glutamine (Sigma Aldrich, MO, USA) and 50 U/ml penicillin/streptomycin (P/S). HCT-116 cells were cultured in McCoy's 5A (modified) (Gibco) medium supplemented with FBS, NEAA, L-glutamine and P/S. All cell lines were tested regularly using MycoAlert Mycoplasma Detection Kit (Lonza). The cumulative length of the cells between thawing and use in the experiments was less than 20 passages.
(§2) Newly synthesized molecules were dissolved in 100% DMSO to yield a stock concentration of 10 mM. For cell viability assay, JIMT-1 (3×10^3 cells/well) and HCT-116 (4×10^3), cells were seeded into 96-well plates, and 24 hours after cell seeding inhibitor treatments were performed at different concentrations. Cell viability was measured 72 hours after treatment with Sulforhodamine B (SRB, Sigma Aldrich) assay as recommended by the manufacturer.

[2] = tested on: JIMT-1 human breast cancer cell line; test: Cell viability assay (SRB) in JIMT-1; type: cell-based; conditions: 72 hours after treatment, read-out: JIMT1 IC50
Experimental: as §1, §2

For C[C@@H]1CN(c2nccc(Nc3cc(-c4ccc(Br)cc4)n[nH]3)n2)C[C@H](C)O1 [Compound 208, N-(3-(4-bromophenyl)-1H-pyrazol-5-yl)-2-((2R,6S)-2,6-dimethylmorpholino)pyrimidin-4-amine], which IC50 [1] is on record?
Its IC50 is 448 nM.

What about the IC50 [2] of the same molecule?
The IC50 was 212 nM.

With CC1COCCN1c1ncc(F)c(Nc2cc(-c3ccc(OC(F)F)cc3)n[nH]2)n1 (stereo not drawn) [Compound 291, N-(3-(4-(difluoromethoxy)phenyl)-1H-pyrazol-5-yl)-5-fluoro-2-(3-methylmorpholino)pyrimidin-4-amine] as the molecule, how does the IC50 [1] read?
The IC50 was 1710 nM.

And the IC50 [2]?
The IC50 was 777 nM.

C[C@@H]1COCCN1c1ncc(F)c(Nc2cc(-c3ccc(OC(F)F)cc3)n[nH]2)n1 [Compound 295, (R)-N-(3-(4-(difluoromethoxy)phenyl)-1H-pyrazol-5-yl)-5-fluoro-2-(3-methylmorpholino)pyrimidin-4-amine] was tested. Which IC50 [1] did it give?
Its IC50 is 7510 nM.

What about the IC50 [2] of the same molecule?
Its IC50 is at least 10000 nM.

For COc1ccc(-c2cc(Nc3ccnc(N4CCC(C)C4)n3)[nH]n2)c(F)c1 (stereo not drawn) [Compound 160, N-(3-(2-fluoro-4-methoxyphenyl)-1H-pyrazol-5-yl)-2-(3-methylpyrrolidin-1-yl)pyrimidin-4-amine], which IC50 [1] is on record?
The IC50 was 147 nM.

And the IC50 [2]?
The IC50 was 39 nM.

What does the source list for COc1ccc(-c2cc(Nc3ccnc(N4CCOC(C)C4)n3)[nH]n2)cc1F (stereo not drawn) [Compound 94, N-(3-(3-fluoro-4-methoxyphenyl)-1H-pyrazol-5-yl)-2-(2-methylmorpholino)pyrimidin-4-amine]?
IC50 [1]: 46 nM; IC50 [2]: 29 nM

C[C@@H]1CN(c2nccc(Nc3cc(-c4ccc5c(c4)CCC5)[nH]n3)n2)C[C@H](C)O1 [Compound 211, N-(5-(2,3-dihydro-1H-inden-5-yl)-1H-pyrazol-3-yl)-2-((2R,6S)-2,6-dimethylmorpholino)pyrimidin-4-amine] was tested. Which IC50 [1] did it give?
The IC50 was 39 nM.

What about the IC50 [2] of the same molecule?
The IC50 was 43 nM.

Which results are given for C[C@@H]1CN(c2nccc(Nc3cc(-c4ccc(F)cc4)[nH]n3)n2)C[C@H](C)O1 [Compound 196, 2-((2R,6S)-2,6-dimethylmorpholino)-N-(5-(4-fluorophenyl)-1H-pyrazol-3-yl)pyrimidin-4-amine]?
IC50 [1]: 619 nM; IC50 [2]: 383 nM

What does the source list for COc1ccc(-c2cc(Nc3ccnc(N4CCOCC4)n3)n(C)n2)cc1 [Compound 184, N-(3-(4-methoxyphenyl)-1-methyl-1H-pyrazol-5-yl)-2-morpholinopyrimidin-4-amine]?
IC50 [1]: 20000 nM; IC50 [2]: 8790 nM

For FC(F)Oc1ccc(-c2cc(Nc3ccnc(N4C[C@@H]5C[C@H]4CO5)n3)[nH]n2)cc1 [Compound 261, 2-((1S,4S)-2-oxa-5-azabicyclo[2.2.1]heptan-5-yl)-N-(3-(4-(difluoromethoxy)phenyl)-1H-pyrazol-5-yl)pyrimidin-4-amine], which IC50 [1] is on record?
The IC50 was 7200 nM.

What about the IC50 [2] of the same molecule?
The IC50 was 400 nM.

What does the source list for COc1ccc(-c2cc(Nc3ccnc(N4CC(C)(C)OC(C)(C)C4)n3)[nH]n2)cc1F [Compound 90, N-(3-(3-fluoro-4-methoxyphenyl)-1H-pyrazol-5-yl)-2-(2,2,6,6-tetramethylmorpholino)pyrimidin-4-amine]?
IC50 [1]: 733 nM; IC50 [2]: 365 nM

Which IC50 [1] does the source give for COc1ccc(-c2cc(Nc3ccnc(N4C[C@@H](C)O[C@@H](C)C4)n3)nn2C)c(F)c1 [Compound 190, 2-((2R,6S)-2,6-dimethylmorpholino)-N-(5-(2-fluoro-4-methoxyphenyl)-1-methyl-1H-pyrazol-3-yl)pyrimidin-4-amine] here?
The IC50 was 484 nM.

And the IC50 [2]?
The IC50 was 251 nM.

How did the IC50 [1] turn out when COc1ccc(-c2cc(Nc3nc(N4C[C@@H](C)O[C@@H](C)C4)ncc3F)[nH]n2)c(F)c1 [Compound 282, 2-((2R,6S)-2,6-dimethylmorpholino)-5-fluoro-N-(3-(2-fluoro-4-methoxyphenyl)-1H-pyrazol-5-yl)pyrimidin-4-amine] was run?
Its IC50 is 46 nM.

What about the IC50 [2] of the same molecule?
The IC50 was 45 nM.

For C[C@H]1CN(c2nccc(Nc3cc(-c4ccc(OC(F)F)cc4)n[nH]3)n2)C[C@H](C)O1 [Compound 241, N-(3-(4-(difluoromethoxy)phenyl)-1H-pyrazol-5-yl)-2-((25,6S)-2,6-dimethylmorpholino)pyrimidin-4-amine], which IC50 [1] is on record?
The IC50 was 1810 nM.

What about the IC50 [2] of the same molecule?
Its IC50 is 46 nM.

With C[C@@H]1CN(c2nccc(Nc3cc(-c4ccc5c(ccn5C)c4)n[nH]3)n2)C[C@H](C)O1 [Compound 217, 2-((2R,6S)-2,6-dimethylmorpholino)-N-(3-(1-methyl-1H-indol-5-yl)-1H-pyrazol-5-yl)pyrimidin-4-amine] as the molecule, how does the IC50 [1] read?
The IC50 was 5 nM.

And the IC50 [2]?
The IC50 was 6 nM.

Which IC50 [1] does the source give for COc1ccc(-c2cc(Nc3ccnc(N4C[C@@H](C)O[C@H](C)C4)n3)[nH]n2)c(F)c1 [Compound 149, 2-((2R,6R)-2,6-dimethylmorpholino)-N-(3-(2-fluoro-4-methoxyphenyl)-1H-pyrazol-5-yl)pyrimidin-4-amine] here?
The IC50 was 115 nM.

What about the IC50 [2] of the same molecule?
The IC50 was 65 nM.

Which IC50 [1] does the source give for C[C@H]1CN(c2ncc(F)c(Nc3cc(-c4ccc(OC(F)F)cc4)n[nH]3)n2)C[C@H](C)O1 [Compound 293, N-(3-(4-(difluoromethoxy)phenyl)-1H-pyrazol-5-yl)-2-((2S,6S)-2,6-dimethylmorpholino)-5-fluoropyrimidin-4-amine] here?
The IC50 was 332 nM.

And the IC50 [2]?
The IC50 was 255 nM.

Which results are given for FC(F)Oc1ccc(-c2cc(Nc3ccnc(N4CC(F)(F)C4)n3)[nH]n2)cc1 [Compound 249, 2-(3,3-difluoroazetidin-1-yl)-N-(3-(4-(difluoromethoxy)phenyl)-1H-pyrazol-5-yl)pyrimidin-4-amine]?
IC50 [1]: ≥ 10000 nM; IC50 [2]: 305 nM

Which IC50 [1] does the source give for C[C@@H]1CN(c2nccc(Nc3cc(-c4ccc(OCF)cc4)n[nH]3)n2)C[C@H](C)O1 [Compound 210, 2-((2R,6S)-2,6-dimethylmorpholino)-N-(3-(4-(fluoromethoxy)phenyl)-1H-pyrazol-5-yl)pyrimidin-4-amine] here?
Its IC50 is 31 nM.

And the IC50 [2]?
Its IC50 is 30 nM.

For COc1ccc(-c2cc(Nc3ccnc(N4CCCCC4)n3)[nH]n2)c(F)c1 [Compound 152, N-(3-(2-fluoro-4-methoxyphenyl)-1H-pyrazol-5-yl)-2-(piperidin-1-yl)pyrimidin-4-amine], which IC50 [1] is on record?
The IC50 was 11 nM.

And the IC50 [2]?
The IC50 was 5 nM.

With COc1ccc(-c2cc(Nc3ccnc(N4CCOCC4)n3)[nH]n2)c(Cl)c1 [Compound 27, N-(3-(2-chloro-4-methoxyphenyl)-1H-pyrazol-5-yl)-2-morpholinopyrimidin-4-amine] as the molecule, how does the IC50 [1] read?
The IC50 was 321 nM.

And the IC50 [2]?
Its IC50 is 367 nM.

What does the source list for C[C@@H]1CN(c2nccc(Nc3cc(-c4ccc5occc5c4)n[nH]3)n2)C[C@H](C)O1 [Compound 205, N-(3-(benzofuran-5-yl)-1H-pyrazol-5-yl)-2-((2R,6S)-2,6-dimethylmorpholino)pyrimidin-4-amine]?
IC50 [1]: 96 nM; IC50 [2]: 27 nM

C[C@@H]1CN(c2nccc(N(C)c3cc(-c4ccc(OCF)cc4)n[nH]3)n2)C[C@H](C)O1 [Compound 277, 2-((2R,6S)-2,6-dimethylmorpholino)-N-(3-(4-(fluoromethoxy)phenyl)-1H-pyrazol-5-yl)-N-methylpyrimidin-4-amine] was tested. Which IC50 [1] did it give?
The IC50 was 269 nM.

What about the IC50 [2] of the same molecule?
Its IC50 is 204 nM.

Which results are given for C[C@@H]1COCCN1c1nccc(Nc2cc(-c3ccc(OC(F)F)cc3)n[nH]2)n1 [Compound 264, (R)-N-(3-(4-(difluoromethoxy)phenyl)-1H-pyrazol-5-yl)-2-(3-methylmorpholino)pyrimidin-4-amine]?
IC50 [1]: 302 nM; IC50 [2]: 127 nM

What does the source list for CC1CCCN1c1ncc(F)c(Nc2cc(-c3ccc(OC(F)F)cc3)n[nH]2)n1 (stereo not drawn) [Compound 290, N-(3-(4-(difluoromethoxy)phenyl)-1H-pyrazol-5-yl)-5-fluoro-2-(2-methylpyrrolidin-1-yl)pyrimidin-4-amine]?
IC50 [1]: 337 nM; IC50 [2]: 278 nM

With COc1ccc(-c2cc(Nc3ccnc(N4CCN(C)CC4)n3)[nH]n2)c(F)c1 [Compound 148, N-(3-(2-fluoro-4-methoxyphenyl)-1H-pyrazol-5-yl)-2-(4-methylpiperazin-1-yl)pyrimidin-4-amine] as the molecule, how does the IC50 [1] read?
Its IC50 is 986 nM.

And the IC50 [2]?
Its IC50 is 213 nM.

For COc1ccc(-c2cc(Nc3ccnc(N4CCC(C(F)(F)F)CC4)n3)[nH]n2)cc1 [Compound 70, N-(3-(4-methoxyphenyl)-1H-pyrazol-5-yl)-2-(4-(trifluoromethyl)piperidin-1-yl)pyrimidin-4-amine], which IC50 [1] is on record?
Its IC50 is 28 nM.

What about the IC50 [2] of the same molecule?
The IC50 was 26 nM.

COc1ccc(-c2cc(Nc3ccnc(N4CCOC(C(F)(F)F)C4)n3)[nH]n2)c(F)c1 (stereo not drawn) [Compound 139, N-(3-(2-fluoro-4-methoxyphenyl)-1H-pyrazol-5-yl)-2-(2-(trifluoromethyl)morpholino)pyrimidin-4-amine] was tested. Which IC50 [1] did it give?
Its IC50 is 146 nM.

And the IC50 [2]?
Its IC50 is 91 nM.

How did the IC50 [1] turn out when C[C@@H]1CN(c2nccc(Nc3cc(-c4ccc(OC(F)(F)F)c(Cl)c4)n[nH]3)n2)C[C@H](C)O1 [Compound 192b, N-(3-(3-chloro-4-(trifluoromethoxy)phenyl)-1H-pyrazol-5-yl)-2-((2R,6S)-2,6-dimethylmorpholino)pyrimidin-4-amine] was run?
The IC50 was 8970 nM.

What about the IC50 [2] of the same molecule?
The IC50 was 4640 nM.

Which results are given for FC(F)Oc1ccc(-c2cc(Nc3ccnc(N4CCC4)n3)[nH]n2)cc1 [Compound 244, 2-(azetidin-1-yl)-N-(3-(4-(difluoromethoxy)phenyl)-1H-pyrazol-5-yl)pyrimidin-4-amine]?
IC50 [1]: 1120 nM; IC50 [2]: 46 nM

Which results are given for FC(F)Oc1ccc(-c2cc(Nc3ccnc(N4CCC(F)(F)C4)n3)[nH]n2)cc1 [Compound 252, N-(3-(4-(difluoromethoxy)phenyl)-1H-pyrazol-5-yl)-2-(3,3-difluoropyrrolidin-1-yl)pyrimidin-4-amine]?
IC50 [1]: 1260 nM; IC50 [2]: 122 nM

From patent US20240374590A1, “COMPOSITIONS AND METHODS FOR TREATING CANCER” (A2A PHARMACEUTICALS, INC., priority 2021, published 2024)
